The results in this text go back to PMC4872591, “An evaluation of Minor Groove Binders as anti-Trypanosoma brucei brucei therapeutics” (European Journal of Medicinal Chemistry, 2016).

What is called IC50 is the concentration needed to halve the response being measured.

Read-outs that look alike come from different tables or passages of the source. Bounds are passed on as bounds.

In this assay the test system is Bloodstream form T. b. brucei (Lister 427). The assay is described as follows: Trypanosoma brucei brucei Alamar Blue assay. The format is cell-based. As for the experimental part: IC50 values against trypanosomes were determined by Alamar Blue assay. […] After this time, 20 μL of resazurin dye (Sigma–Aldrich) solution at 0.49 mM was added. […] Output was plotted using the IC50 determination algorithm of Prism 5.0 software (GraphPad). Three independent experiments were carried out in duplicate for each compound.

The mark [1] stands for this setting: Table 1, Alamar Blue, 48 h + 24 h, all standard deviations less than 2%, read-out: IC50 against Trypanosoma brucei brucei.
The mark [2] stands for this setting: Trypanosoma brucei, Table 1, Alamar Blue, 48 h + 24 h, all standard deviations less than 2%, read-out: IC50 against Trypanosoma brucei brucei.
Setting [3] is: Trypanosoma brucei, values in μM, read-out: IC50 against T. b. brucei.
[4] abbreviates: Trypanosoma brucei, Table S2 (supplement), T. b. brucei activity, read-out: IC50.

On to “4-(Formylamino)-1-methyl-N-[1-methyl-5-({[1-methyl-5-({[2-(4-morpholinyl)ethyl]amino}carbonyl)-1H-pyrrol-3-yl]amino}carbonyl)-1H-pyrrol-3-yl]-1H-pyrrole-2-carboxamide [Compound 4]”, for which the IC50 under setting [1] was 48 µM. As for `COc1cccc(C(=N)Nc2cc(C(=O)Nc3cc(C(=O)Nc4cc(C(=O)NCCCN5CCOCC5)n(C)c4)n(C)c3)n(C)c2)c1` [Compound 9, 4-{[(4-{[imino(3-methoxyphenyl)methyl]amino}-1-methyl-1H-pyrrol-2-yl)carbonyl]amino}-1-methyl-N-[1-methyl-5-({[3-(4-morpholinyl)propyl]amino}carbonyl)-1H-pyrrol-3-yl]-1H-pyrrole-2-carboxamide], the IC50 under setting [2] was over 75 µM and the IC50 under setting [3] is over 75 µM. `N=C(N)c1ccc(/N=N/Nc2ccc(C(=N)N)cc2)cc1` [Diminazene, diminazene, reference compound]: the IC50 (Trypanosoma brucei, values given in nM, read-out: IC50 against T. b. brucei) was 0.005 µM. `Cn1cc(NC(=O)c2cc(NC(=O)c3ccc(/C=C/c4ccncc4)cc3)cn2C)cc1C(=O)NCCN1CCOCC1` [Compound 24, 1-Methyl-N-[1-methyl-5-({[2-(4-morpholinyl)ethyl]amino}carbonyl)-1H-pyrrol-3-yl]-4-({4-[(E)-2-(4-pyridinyl)ethenyl]benzoyl}amino)-1H-pyrrole-2-carboxamide]: under setting [2], the IC50 was 0.38 µM. Turning to `CC(=N)Nc1cc(C(=O)Nc2cc(C(=O)Nc3cc(C(=O)NCCCN(C)C)n(C)c3)n(C)c2)n(C)c1` [Compound 2, N-[5-({[5-({[3-(Dimethylamino)propyl]amino}carbonyl)-1-methyl-1H-pyrrol-3-yl]amino}carbonyl)-1-methyl-1H-pyrrol-3-yl]-4-(ethanimidoylamino)-1-methyl-1H-pyrrole-2-carboxamide], the concentration for half-maximal inhibition (IC50) is over 75 µM under setting [2] and over 75 µM under setting [3]. On to `Cn1cc(NC(=O)c2cc(NC(=O)c3cc4ccccc4cn3)cn2C)cc1C(=O)NCCN1CCOCC1` [Compound 14, N-[1-Methyl-5-({[1-methyl-5-({[2-(4-morpholinyl)ethyl]amino}carbonyl)-1H-pyrrol-3-yl]amino}carbonyl)-1H-pyrrol-3-yl]-3-isoquinolinecarboxamide], for which the IC50 under setting [2] is 0.97 µM and the IC50 under setting [4] was determined as 0.21 µM. Consider `Cn1cc(NC(=O)c2cc(NC(=O)c3cc(NC(=O)c4ccc(Cl)cc4Cl)cn3C)cn2C)cc1C(=O)NCCCN1CCOCC1` [Compound 25, 4-[(2,4-Dichlorobenzoyl)amino]-1-methyl-N-[1-methyl-5-({[1-methyl-5-({[3-(4-morpholinyl)propyl]amino}carbonyl)-1H-pyrrol-3-yl]amino}carbonyl)-1H-pyrrol-3-yl]-1H-pyrrole-2-carboxamide], for which the IC50 is, setting by setting: under setting [2], 2.3 µM; under setting [4], 0.79 µM. As for `Cn1cc(NC(=O)c2cc(NC(=O)c3ccc(/C=C/c4cccc(F)c4)cc3)cn2C)cc1C(=O)NCCN1CCOCC1` [Compound 27, 4-({4-[(E)-2-(3-fluorophenyl)ethenyl]benzoyl}amino)-1-methyl-N-[1-methyl-5-({[2-(4-morpholinyl)ethyl]amino}carbonyl)-1H-pyrrol-3-yl]-1H-pyrrole-2-carboxamide], the IC50 under setting [2] stood at 0.22 µM.

For the molecule `CN(C)CCCNC(=O)c1cc(NC(=O)c2cc(NC(=O)c3cc(NC(=N)c4ccccc4)cn3C)cn2C)cn1C` [Compound 1, N-[5-({[5-({[3-(Dimethylamino)propyl]amino}carbonyl)-1-methyl-1H-pyrrol-3-yl]amino}carbonyl)-1-methyl-1H-pyrrol-3-yl]-4-{[imino(phenyl)methyl]amino}-1-methyl-1H-pyrrole-2-carboxamide], the IC50 under setting [2] was over 75 µM and the IC50 under setting [3] is over 75 µM. As for “2-{[(4-{[(4-{[Imino(4-methoxy-2-pyridinyl)methyl]amino}-1-methyl-1H-pyrrol-2-yl)carbonyl]amino}-1-methyl-1H-pyrrol-2-yl)carbonyl]amino}-5-isopropyl-N-[2-(4-morpholinyl)ethyl]-1,3-thiazole-4-carboxamide [Compound 5]”, the IC50 is, setting by setting: under setting [1], over 75 µM; (values in μM, read-out: IC50 against T. b. brucei) over 75 µM. As to `CN(C)CCCNC(=O)c1cc(NC(=O)c2cc(NC(=O)c3cc4ccccc4cn3)cn2C)cn1C` [Compound 15, N-[5-({[5-({[3-(Dimethylamino)propyl]amino}carbonyl)-1-methyl-1H-pyrrol-3-yl]amino}carbonyl)-1-methyl-1H-pyrrol-3-yl]-3-isoquinolinecarboxamide], the IC50 runs as follows: under setting [2], 2.2 µM; under setting [4], 0.97 µM.

Take `COc1cccc(/C=C/c2cccc(C(=O)Nc3cc(C(=O)Nc4nc(C(=O)NCCCN(C)C)c(CCC(C)C)s4)n(C)c3)c2)c1` [Compound 12, N-[3-(Dimethylamino)propyl]-5-isopentyl-2-({[4-({3-[(E)-2-(3-methoxyphenyl)ethenyl]benzoyl}amino)-1-methyl-1H-pyrrol-2-yl]carbonyl}amino)-1,3-thiazole-4-carboxamide]: the half-maximal inhibitory concentration (IC50) was determined as 0.18 µM under setting [2] and 0.28 µM under setting [4]. For `COc1cccc(C(=N)Nc2cc(C(=O)Nc3cc(C(=O)Nc4cc(C(=O)NCCCN(C)C)n(C)c4)n(C(C)C)c3)n(C)c2)c1` [Compound 7, N-[5-({[5-({[3-(Dimethylamino)propyl]amino}carbonyl)-1-methyl-1H-pyrrol-3-yl]amino}carbonyl)-1-isopropyl-1H-pyrrol-3-yl]-4-{[imino(3-methoxyphenyl)methyl]amino}-1-methyl-1H-pyrrole-2-carboxamide], the half-inhibitory concentration (IC50) under setting [2] stood at 27 µM. The same measure, in the same setting: under `CC(C)CCc1sc(NC(=O)c2cc(NC(=O)c3cc4ccccc4cn3)cn2C)nc1C(=O)NCCCN(C)C` [Compound 18, N-[5-({[4-({[3-(Dimethylamino)propyl]amino}carbonyl)-5-isopentyl-1,3-thiazol-2-yl]amino}carbonyl)-1-methyl-1H-pyrrol-3-yl]-3-isoquinolinecarboxamide] stands 0.39 µM; under `Cn1cc(NC(=O)c2cc(NC(=O)c3ccc(/C=C/c4ccc(C(F)(F)F)cc4)cc3)cn2C)cc1C(=O)NCCN1CCOCC1` [Compound 22, 1-methyl-N-[1-methyl-5-({[2-(4-morpholinyl)ethyl]amino}carbonyl)-1H-pyrrol-3-yl]-4-[(4-{(E)-2-[4-(trifluoromethyl)phenyl]ethenyl}benzoyl)amino]-1H-pyrrole-2-carboxamide], 0.73 µM; under `Cn1cc(NC(=O)c2cc(NC(=O)c3ccc(/C=C/c4ccc(F)cc4)cc3)cn2C)cc1C(=O)NCCN1CCOCC1` [Compound 26, 4-({4-[(E)-2-(4-fluorophenyl)ethenyl]benzoyl}amino)-1-methyl-N-[1-methyl-5-({[2-(4-morpholinyl)ethyl]amino}carbonyl)-1H-pyrrol-3-yl]-1H-pyrrole-2-carboxamide], 0.71 µM. As to `Cn1cc(NC(=O)c2cc(NC(=O)c3ccc(/C=C/c4nc5ccccc5o4)cc3)cn2C)cc1C(=O)NCCN1CCOCC1` [Compound 16, 4-({4-[(E)-2-(1,3-benzoxazol-2-yl)ethenyl]benzoyl}amino)-1-methyl-N-[1-methyl-5-({[2-(4-morpholinyl)ethyl]amino}carbonyl)-1H-pyrrol-3-yl]-1H-pyrrole-2-carboxamide], the IC50 under setting [2] amounted to 0.79 µM and the IC50 under setting [4] turned out to be 2.2 µM. Turning to `Cn1cc(NC(=O)c2cc(NC(=O)c3cc(NC(=O)c4ccc(Cl)cc4Cl)cn3C)cn2C)cc1C(=O)NCCN1CCOCC1` [Compound 3, 4-[(2,4-Dichlorobenzoyl)amino]-1-methyl-N-[1-methyl-5-({[1-methyl-5-({[2-(4-morpholinyl)ethyl]amino}carbonyl)-1H-pyrrol-3-yl]amino}carbonyl)-1H-pyrrol-3-yl]-1H-pyrrole-2-carboxamide], the IC50 under setting [2] was determined as 0.4 µM.

For `CN(C)CCCNC(=O)c1cc(NC(=O)c2cc(NC(=O)c3cc(NC(=N)c4cc5ccccc5cn4)cn3C)cn2C)cn1C` [Compound 17, N-[5-({[3-(dimethylamino)propyl]amino}carbonyl)-1-methyl-1H-pyrrol-3-yl]-4-{[(4-{[imino(3-isoquinolinyl)methyl]amino}-1-methyl-1H-pyrrol-2-yl)carbonyl]amino}-1-methyl-1H-pyrrole-2-carboxamide], the IC50 under setting [2] is 4.9 µM.

As for `CC(C)n1cc(NC(=O)c2cc(NC(=O)c3cnc(Cl)c(Cl)c3)cn2C)cc1C(=O)Nc1cc(C(=O)NCCCN(C)C)n(C)c1` [Compound 6, 5,6-Dichloro-N-[5-({[5-({[5-({[3-(dimethylamino)propyl]amino}carbonyl)-1-methyl-1H-pyrrol-3-yl]amino}carbonyl)-1-isopropyl-1H-pyrrol-3-yl]amino}carbonyl)-1-methyl-1H-pyrrol-3-yl]nicotinamide], the IC50 under setting [2] is 4 µM. Turning to `COc1ccc(/C=C/c2ccc3cc(C(=O)Nc4cc(C(=O)Nc5cc(C(=O)NCCN6CCOCC6)n(C)c5)n(C)c4)ccc3n2)cc1` [Compound 30, 2-[(E)-2-(4-Methoxyphenyl)ethenyl]-N-[1-methyl-5-({[1-methyl-5-({[2-(4-morpholinyl)ethyl]amino}carbonyl)-1H-pyrrol-3-yl]amino}carbonyl)-1H-pyrrol-3-yl]-6-quinolinecarboxamide], the IC50 under setting [2] came to 0.63 µM. Consider `COc1cccc(/C=C/c2ccc(C(=O)Nc3cc(C(=O)Nc4nc(C(=O)NCCCN(C)C)c(CCC(C)C)s4)n(C)c3)cc2)c1` [Compound 11, N-[3-(dimethylamino)propyl]-5-isopentyl-2-({[4-({4-[(E)-2-(3-methoxyphenyl)ethenyl]benzoyl}amino)-1-methyl-1H-pyrrol-2-yl]carbonyl}amino)-1,3-thiazole-4-carboxamide], for which the concentration for half-maximal inhibition (IC50) was found to be 0.28 µM under setting [2] and 0.3 µM under setting [4].
